The target of one assay is T1, hKCa3.1 (Homo sapiens, UniProt O15554).
T1 construct: EGFP (vector pEGFP-C1); expressed in transfected cells; host or cells: CHO cells, transient transfection
Kind of assay: Whole-cell patch-clamp, block of KCa3.1 current. Format: cell-based. The text has this:
(§1) We, therefore, aimed at testing the pharmacological activity of sCm39 on a battery of various potassium and sodium ion channels. Among the tested channels were six members of human voltage-gated K^+ (hKV) channels from Shaker family, hKV1.1-hKV1.6 (Figure 3A–F) and three members of Ca^2+-activated potassium channel; hKCa2.2 (SK2, Figure 3I), the small-conductance Ca^2+-activated channel; hKCa3.1 (IKCa1, SK4. Figure 3J), the intermediate-conductance Ca^2+-activated channel expressed in T lymphocytes; and mKCa1.1 (BK, Slo1, MaxiK, Figure 3H), the large-conductance voltage- and Ca^2+-activated channel of mice. In addition, we also screened the effect of Cm39 on hKV11.1 (hERG1, Figure 3G), a voltage-gated cardiac K^+ channel, and two human voltage-gated sodium (hNaV) channels, hNaV1.4 (Figure 3K) and hNaV1.5 (Figure 3L), expressed in skeletal and cardiac muscles, respectively. These ion channels were heterologously expressed in the CHO or HEK cell lines except for KV1.3. Human peripheral T lymphocytes. They were stimulated with Phytohemagglutinin A (PHA) to increase the KV1.3 channel expression, and Ca^2+-free intracellular solution was used to avoid KCa3.1 channel activation. Appropriate depolarization protocols were used to record ionic currents in voltage-clamped cells (see Figure 3 insets and Material and Methods for details). Freshly dissolved sCm39 in extracellular solution was applied at 1 µM concentration on the cell using a custom-built micro-perfusion system at ~200 µL/min flow rate.
The whole-cell K^+ currents of CHO cells transiently expressing KCa2.2 or KCa3.1 channels were recorded sequentially by applying the 150 ms long voltage ramp to +50 mV from Vh of −120 mV every 10 s in the presence of control solution or upon perfusing the cell with different concentrations of sCm39. Normalized peak currents were calculated and plotted as function of time as shown in Figure 5A for KCa2.2 and in Figure 5C for KCa3.1 in the presence of the toxin at various concentrations and upon wash-out. […] RCF values were determined at equilibrium block in the presence of various concentrations of sCm39 and fitted with the Hill equation (see Materials and Methods for details).
Chinese hamster ovary (CHO) cells (gift from Yosef Yarden, Weizmann Institute of Science, Rehovot, Israel) were maintained by culturing in Dulbecco’s modified Eagle medium (DMEM, Gibco) supplemented with 2 mM L-glutamine, 10% FBS, 100 µg/mL streptomycin and 100 U/mL penicillin-g (Sigma-Aldrich) at a density of 0. 5−1×10^6 cells per mL in a humidified incubator at 37 °C and 5% CO2. Cells were passaged 3 times in a week following a 2–5 min incubation in 0.05% trypsin-EDTA solution at 37 °C. Cultures were used up to passage number 20. PCR-based tests were routinely used to detect mycoplasma infection, only mycoplasma-free cultures were used for experiments.
Those plasmids which lack a fluorescent tag were co-transfected with a plasmid encoding GFP. Transfections were performed at a GFP:channel DNA molar ratio of 1:10 using the Lipofectamine 2000 kit (Invitrogen) according to the manufacturer’s protocol. […] Generally, currents were recorded 24 to 48 h post transfection.
For the measurement of KV1.x, mKCa1.1 and NaV1.x currents the extracellular solution was composed of (in mM) 145 NaCl, 5 KCl, 2.5 CaCl2, 1 MgCl2, 10 HEPES and 5.5 glucose, pH 7.35.

The next assay concerns the target T2, hKV1.2 (Homo sapiens, UniProt P16389).
T2 construct: GFP (vector pCMV6-AC-GFP); host or cells: CHO cells, transient transfection
The assay is described as follows: Whole-cell patch-clamp, block of KV1.2 current. Type of assay: cell-based.
From the text: as §1
For comprehensive characterization of Cm39 activity on KV1.2, we determined the concentration–response of current inhibition by Cm39, the kinetic parameters of its binding and assessed the effect on voltage dependence of steady-state activation. The whole-cell KV1.2 currents were recorded in CHO cells using depolarization pulses to +50mV from −120mV holding potential (Vh) every 15 s. Since the activation kinetics of KV1.2 are highly variable, the duration of pulses was set on a cell-by-cell basis between 15–300 ms to allocate sufficient time for reaching maximum currents at the test potentials. […] The remaining current fractions (RCF = I/I0, where I0 is the peak current in the absence of the toxin, and I is the peak current at equilibrium block in the presence of sCm39 at a given concentration) were calculated and plotted as a function of toxin concentration.
Single-exponential decay functions were fitted to the normalized peak currents in the presence of each sCm39 concentration (Figure 4C, data points in red shades) to determine the time constant for the onset of block (τon, wash-in or association time constant). The dissociation time constant for the relief from block (τoff, wash-out time constant) was obtained by fitting a single-exponential rising function to the normalized peak currents in the wash-out procedure (Figure 4C, data point in black empty circles). Assuming a simple bimolecular interaction between the toxin and the channel, time constants for the onset and recovery from the block can be stated as follows:(1) τon=1/kon×[toxin]+koff , τoff=1/koff where kon represents the second-order association rate constant, koff indicates the first-order dissociation rate constant and [toxin] is the sCm39 concentration. […] The second-order rate constant of association (kon) was determined by fitting the 1/τon data points using linear regression with koff as the y-intercept.
In general terms: In patch-clamp work, channel activity is measured electrically.

Consider one compound from paper PMC9866218, “Characterization and Chemical Synthesis of Cm39 (α-KTx 4.8): A Scorpion Toxin That Inhibits Voltage-Gated K^+ Channel KV1.2 and Small- and Intermediate-Conductance Ca^2+-Activated K^+ Channels KCa2.2 and KCa3.1” (Toxins, 2023).

As usually defined, the inhibition is the drop in the measured response relative to a control, in per cent. The term Hill coefficient denotes a measure of the steepness of the concentration-response curve. The term kon denotes the second-order rate constant of association.

T1 sequence (O15554 whole entry): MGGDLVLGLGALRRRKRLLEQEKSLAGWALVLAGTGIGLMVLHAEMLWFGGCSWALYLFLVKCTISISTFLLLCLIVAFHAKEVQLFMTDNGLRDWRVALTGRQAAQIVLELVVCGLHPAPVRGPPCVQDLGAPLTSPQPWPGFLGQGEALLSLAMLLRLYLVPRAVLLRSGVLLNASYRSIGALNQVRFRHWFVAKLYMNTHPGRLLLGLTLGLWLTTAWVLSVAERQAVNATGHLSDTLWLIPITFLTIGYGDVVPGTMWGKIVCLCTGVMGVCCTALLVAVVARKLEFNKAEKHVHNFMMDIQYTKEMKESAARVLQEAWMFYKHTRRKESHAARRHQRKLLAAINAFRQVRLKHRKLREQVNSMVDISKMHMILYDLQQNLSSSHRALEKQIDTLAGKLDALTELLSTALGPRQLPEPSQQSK
T2 sequence (P16389 whole entry): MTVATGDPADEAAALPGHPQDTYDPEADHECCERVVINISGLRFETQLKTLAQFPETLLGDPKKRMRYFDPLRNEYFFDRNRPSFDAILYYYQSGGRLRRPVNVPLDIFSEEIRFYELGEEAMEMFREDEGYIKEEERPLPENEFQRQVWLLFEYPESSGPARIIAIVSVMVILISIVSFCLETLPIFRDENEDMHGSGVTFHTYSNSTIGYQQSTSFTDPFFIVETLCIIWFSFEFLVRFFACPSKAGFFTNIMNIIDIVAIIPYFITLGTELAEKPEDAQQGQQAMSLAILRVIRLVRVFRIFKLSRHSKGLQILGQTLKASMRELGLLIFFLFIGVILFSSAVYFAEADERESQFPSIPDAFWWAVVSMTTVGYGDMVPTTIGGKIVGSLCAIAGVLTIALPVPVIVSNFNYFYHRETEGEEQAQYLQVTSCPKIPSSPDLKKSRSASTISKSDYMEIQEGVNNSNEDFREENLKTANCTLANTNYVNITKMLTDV

`CC[C@H](C)[C@@H]1NC(=O)[C@H](C)NC(=O)[C@H](C)NC(=O)[C@H](CCCCN)NC(=O)[C@@H]2CSSC[C@@H](C(=O)N[C@@H](Cc3ccc(O)cc3)C(=O)N[C@@H](Cc3ccc(O)cc3)C(=O)O)NC(=O)[C@H](CCCCN)NC(=O)[C@@H]3CSSC[C@H](NC(=O)[C@H](CCC(=O)O)NC(=O)[C@H](CO)NC(=O)[C@H](CO)NC(=O)[C@H](CO)NC(=O)[C@H](CCCCN)NC(=O)[C@@H](NC(=O)[C@H](CCCCN)NC(=O)[C@H](Cc4c[nH]cn4)NC(=O)[C@H](CC(N)=O)NC(=O)[C@@H](NC(=O)[C@H](Cc4ccccc4)NC(=O)[C@@H](N)[C@@H](C)O)[C@@H](C)CC)CSSC[C@H](NC(=O)[C@H](CCCCN)NC(=O)CNC(=O)[C@H](CO)NC(=O)[C@H](C)NC(=O)[C@H](CCCNC(=N)N)NC(=O)CNC1=O)C(=O)N[C@@H]([C@@H](C)CC)C(=O)N[C@@H](CC(N)=O)C(=O)N[C@@H](CO)C(=O)N[C@@H]([C@@H](C)O)C(=O)N3)C(=O)N[C@@H](CC(C)C)C(=O)N1CCC[C@H]1C(=O)N[C@@H](C)C(=O)N2` [Cm39]: the “reduction of current at equilibrium block” value at hKCa3.1 (1 µM, CHO cells, current at +48 mV, n = 3−5 (Figure 3M)) came out at 86%; on hKV1.2 (1 µM, CHO cells, n = 3−5 (Figure 3M)) it was 95%. In addition, the “toxin association and dissociation kinetics” value is given as “fast” on hKCa3.1 (CHO cells); “very fast” on hKCa3.1 (CHO cells, listed as sCm39); “fast” on hKV1.2 (5−500 nM); “very fast” at hKV1.2 (5−500 nM, listed as sCm39). On hKCa3.1 (concentration-response of KCa3.1 block, CHO cells), the “Hill coefficient (H)” value stood at 0.68. Moreover, the “development and almost full recovery from equilibrium block” value at hKCa3.1 (pulses separated by 10 s) is listed as 1–3 depolarization pulses. Further, the “reversibility of KCa3.1 block” value at hKCa3.1 (wash-out with toxin-free solution) is on record as “fully reversible”. The inhibition at 0.005 µM at hKV1.2 (5 nM, CHO cells, pulses to +50 mV, read-out: inhibition of KV1.2 current at equilibrium block) was roughly 5%. The inhibition at 0.02 µM at hKV1.2 (20 nM, CHO cells, pulses to +50 mV, read-out: inhibition of KV1.2 current at equilibrium block) is roughly 22%. On hKV1.2 (50 nM, CHO cells, pulses to +50 mV, read-out: inhibition of KV1.2 current at equilibrium block), the inhibition at 0.05 µM was roughly 43%. Further, the inhibition at 0.1 µM on hKV1.2 (100 nM, CHO cells, pulses to +50 mV, read-out: inhibition of KV1.2 current at equilibrium block) was roughly 62%. For the same compound, the inhibition at 0.25 µM at hKV1.2 (250 nM, CHO cells, pulses to +50 mV, read-out: inhibition of KV1.2 current at equilibrium block) was roughly 78%. Moreover, the inhibition at 0.5 µM on hKV1.2 (500 nM, CHO cells, pulses to +50 mV, read-out: inhibition of KV1.2 current at equilibrium block) is roughly 87%. Further, on hKV1.2 (KV1.2 over KV1.3), the “selectivity for KV1.2 over KV1.3” value was greater than 15 fold. Moreover, the Hill coefficient on hKV1.2 (concentration-response of KV1.2 block, CHO cells) is on record as 0.96. Further, the kon at hKV1.2 (slope of linear regression of 1/τon vs concentration, r^2 = 0.97, CHO cells, read-out: second-order association rate constant kon) stood at 215000 M⁻¹ s⁻¹. The “reversibility of KV1.2 block” value at hKV1.2 (wash-out with toxin-free solution, 5−500 nM) is “fully reversible”. Further, the koff on hKV1.2 (wash-out, single-exponential fit, CHO cells, simple bimolecular interaction assumed, read-out: dissociation rate constant koff (1/τoff)) was determined as 0.019 ± 0.0013 s⁻¹.
